*1 amine or outer side, *2 acyl side, *3 side chain or, on linkers, in order; H or OH if unused. Where a SMILES comes first, the peptide text is derived from it. Side-chain parts run from the residue outwards. [ ]: non-standard residue; d: D form. The star is where a group is joined. C20 diacid = O=C(O)CCCCCCCCCCCCCCCCCCC(=O)*; C18 diacid = O=C(O)CCCCCCCCCCCCCCCCC(=O)*; γGlu = O=C(O)[C@H](CCC(=O)[*:2])N[*:1]; 4Pal = N[C@@H](Cc1ccncc1)C(=O)O; AEEA = NCCOCCOCC(=O)O; Aib = CC(C)(N)C(=O)O
Assays:
human GIPR = molecular target: T1, human GIPR (Homo sapiens, UniProt P48546); test: [125I]-GIP binding, SPA with WGA beads, 0.1% bacitracin; conditions: geometric mean, read-out: hGIPR Ki
T1 construct: expressed in transfected cells; crude membranes
T1 sequence (P48546 22-466): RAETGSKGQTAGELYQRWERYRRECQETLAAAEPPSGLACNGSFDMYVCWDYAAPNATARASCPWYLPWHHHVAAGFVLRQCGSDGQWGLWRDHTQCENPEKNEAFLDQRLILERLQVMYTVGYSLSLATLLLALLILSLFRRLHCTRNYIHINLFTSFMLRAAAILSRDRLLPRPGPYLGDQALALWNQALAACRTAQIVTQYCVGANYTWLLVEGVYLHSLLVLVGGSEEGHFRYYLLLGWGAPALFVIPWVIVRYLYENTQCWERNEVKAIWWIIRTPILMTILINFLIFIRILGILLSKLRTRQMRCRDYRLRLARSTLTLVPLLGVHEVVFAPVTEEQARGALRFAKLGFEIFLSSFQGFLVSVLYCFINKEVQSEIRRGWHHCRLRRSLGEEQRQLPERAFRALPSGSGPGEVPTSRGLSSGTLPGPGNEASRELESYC
How it was run: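 Ki values are geometric means (SEM, n independent days), derived from four-parameter nonlinear regression of IC50. Membranes came from hGIPR-expressing CHO cells.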

human GLP-1R = molecular target: T2, human GLP-1R (Homo sapiens, UniProt P43220); test: [125I]-GLP-1 binding, SPA with WGA beads, 0.1% bacitracin; conditions: geometric mean, read-out: hGLP1R Ki
T2 construct: expressed in transfected cells; crude membranes
T2 sequence (P43220 24-463): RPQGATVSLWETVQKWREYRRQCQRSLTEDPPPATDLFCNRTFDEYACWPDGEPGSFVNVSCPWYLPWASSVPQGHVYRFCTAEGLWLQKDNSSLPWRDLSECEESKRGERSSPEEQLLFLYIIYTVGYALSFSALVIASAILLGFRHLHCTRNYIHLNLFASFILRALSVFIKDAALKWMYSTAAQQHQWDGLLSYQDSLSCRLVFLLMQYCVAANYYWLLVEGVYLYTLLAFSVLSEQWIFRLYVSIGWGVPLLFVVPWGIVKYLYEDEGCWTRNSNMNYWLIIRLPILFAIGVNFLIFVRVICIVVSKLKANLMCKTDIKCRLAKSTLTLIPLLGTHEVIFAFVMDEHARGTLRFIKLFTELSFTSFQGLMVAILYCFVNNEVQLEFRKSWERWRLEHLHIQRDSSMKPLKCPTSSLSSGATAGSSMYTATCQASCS
How it was run: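 Binding buffer was 25 mM HEPES pH 7.4 with 2.5 mM CaCl2, 1 mM MgCl2, 0.1% (w/v) bacitracin, 0.003% Tween-20 and EDTA-free protease inhibitors. Four-parameter regression gave IC50, converted to Ki (geometric mean, SEM, n independent days).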

| Compound | Ki (human GIPR) [nM] | Ki (human GLP-1R) [nM] |
| --- | --- | --- |
| CC[C@H](C)[C@H](NC(=O)[C@H](CO)NC(=O)[C@H](Cc1ccc(O)cc1)NC(=O)[C@H](CC(=O)O)NC(=O)[C@H](CO)NC(=O)[C@@H](NC(=O)[C@H](Cc1ccccc1)NC(=O)[C@@H](NC(=O)CNC(=O)[C@H](CCC(=O)O)NC(=O)C(C)(C)NC(=O)[C@@H](N)Cc1ccc(O)cc1)[C@@H](C)O)[C@@H](C)CC)C(=O)N[C@@H](CC(C)C)C(=O)N[C@@H](CC(C)C)C(=O)N[C@@H](CC(=O)O)C(=O)N[C@@H](CCCCN)C(=O)N[C@@H](CCCCNC(=O)COCCOCCNC(=O)COCCOCCNC(=O)CC[C@H](NC(=O)CCCCCCCCCCCCCCCCC(=O)O)C(=O)O)C(=O)N[C@@H](Cc1c[nH]cn1)C(=O)N[C@@H](CCC(N)=O)C(=O)NC(C)(C)C(=O)N[C@@H](CC(=O)O)C(=O)N[C@@H](Cc1ccccc1)C(=O)N[C@H](C(=O)N[C@@H](CCC(=O)O)C(=O)N[C@@H](Cc1ccncc1)C(=O)N[C@@H](CC(C)C)C(=O)N[C@@H](CC(C)C)C(=O)N[C@@H](C)C(=O)NCC(=O)NCC(=O)N1CCC[C@H]1C(=O)N[C@@H](CO)C(=O)N[C@@H](CO)C(=O)NCC(=O)N[C@@H](C)C(=O)N1CCC[C@H]1C(=O)N1CCC[C@H]1C(=O)N1CCC[C@H]1C(=O)N[C@@H](CO)C(N)=O)C(C)C [Example 22] | 0.219 | 388 |
| CC[C@H](C)[C@H](NC(=O)[C@H](CO)NC(=O)[C@H](Cc1ccc(O)cc1)NC(=O)[C@H](CC(=O)O)NC(=O)[C@H](CO)NC(=O)[C@@H](NC(=O)[C@H](Cc1ccccc1)NC(=O)[C@@H](NC(=O)CNC(=O)[C@H](CCC(=O)O)NC(=O)[C@@H](C)NC(=O)[C@@H](N)Cc1ccc(O)cc1)[C@@H](C)O)[C@@H](C)CC)C(=O)N[C@@H](CC(C)C)C(=O)N[C@@H](CC(C)C)C(=O)N[C@@H](CC(=O)O)C(=O)N[C@@H](CCCCN)C(=O)N[C@@H](CCCCNC(=O)COCCOCCNC(=O)COCCOCCNC(=O)CC[C@H](NC(=O)CCCCCCCCCCCCCCCCC(=O)O)C(=O)O)C(=O)N[C@@H](C)C(=O)N[C@@H](CCC(N)=O)C(=O)NC(C)(C)C(=O)N[C@@H](CC(=O)O)C(=O)N[C@@H](Cc1ccccc1)C(=O)N[C@H](C(=O)N[C@@H](CC(N)=O)C(=O)N[C@@H](Cc1c[nH]c2ccccc12)C(=O)N[C@@H](CC(C)C)C(=O)N[C@@H](CC(C)C)C(=O)N[C@@H](C)C(=O)N[C@@H](CCC(N)=O)C(=O)NCC(=O)N1CCC[C@H]1C(=O)N[C@@H](CO)C(=O)N[C@@H](CO)C(=O)NCC(=O)N[C@@H](C)C(=O)N1CCC[C@H]1C(=O)N1CCC[C@H]1C(=O)N1CCC[C@H]1C(=O)N[C@@H](CO)C(N)=O)C(C)C [Example 2] | 0.0373 | 77.9 |
| CC[C@H](C)[C@H](NC(=O)[C@H](CCCCN)NC(=O)[C@H](CC(=O)O)NC(=O)[C@H](CC(C)C)NC(=O)[C@H](CC(C)C)NC(=O)[C@@H](NC(=O)[C@H](CO)NC(=O)[C@H](Cc1ccc(O)cc1)NC(=O)[C@H](CC(=O)O)NC(=O)[C@H](CO)NC(=O)[C@@H](NC(=O)[C@H](Cc1ccccc1)NC(=O)[C@@H](NC(=O)CNC(=O)[C@H](CCC(=O)O)NC(=O)[C@@H](C)NC(=O)[C@@H](N)Cc1ccc(O)cc1)[C@@H](C)O)[C@@H](C)CC)[C@@H](C)CC)C(=O)N[C@@H](C)C(=O)N[C@@H](CCC(N)=O)C(=O)NC(C)(C)C(=O)N[C@@H](CC(=O)O)C(=O)N[C@@H](Cc1ccccc1)C(=O)N[C@H](C(=O)N[C@@H](CC(N)=O)C(=O)N[C@@H](Cc1c[nH]c2ccccc12)C(=O)N[C@@H](CCCCNC(=O)COCCOCCNC(=O)COCCOCCNC(=O)CC[C@H](NC(=O)CCCCCCCCCCCCCCCCC(=O)O)C(=O)O)C(=O)N[C@@H](CC(C)C)C(=O)N[C@@H](C)C(=O)N[C@@H](CCC(N)=O)C(=O)NCC(=O)N1CCC[C@H]1C(=O)N[C@@H](CO)C(=O)N[C@@H](CO)C(=O)NCC(=O)N[C@@H](C)C(=O)N1CCC[C@H]1C(=O)N1CCC[C@H]1C(=O)N1CCC[C@H]1C(=O)N[C@@H](CO)C(N)=O)C(C)C [Example 93] (H-Y[dA]EGTFISDYSILLDKIAQ[Aib]DFVNWK([AEEA-AEEA-γGlu-C18 diacid])LAQGPSSGAPPPS-NH2) | 0.043 | > 909 |
| CC[C@H](C)[C@H](NC(=O)[C@H](Cc1ccccc1)NC(=O)[C@@H](NC(=O)CNC(=O)[C@H](CCC(=O)O)NC(=O)C(C)(C)NC(=O)[C@@H](N)Cc1ccc(O)cc1)[C@@H](C)O)C(=O)N[C@@H](CO)C(=O)N[C@@H](CC(=O)O)C(=O)N[C@@H](Cc1ccc(O)cc1)C(=O)N[C@@H](CO)C(=O)N[C@H](C(=O)NC(C)(C)C(=O)N[C@@H](CC(C)C)C(=O)N[C@@H](CC(=O)O)C(=O)N[C@@H](CCCCN)C(=O)N[C@@H](CCCCNC(=O)COCCOCCNC(=O)COCCOCCNC(=O)CC[C@H](NC(=O)CCCCCCCCCCCCCCCCC(=O)O)C(=O)O)C(=O)N[C@@H](Cc1c[nH]cn1)C(=O)N[C@@H](CCC(N)=O)C(=O)NC(C)(C)C(=O)N[C@@H](CC(=O)O)C(=O)N[C@@H](Cc1ccccc1)C(=O)N[C@H](C(=O)N[C@@H](CCC(=O)O)C(=O)N[C@@H](Cc1ccncc1)C(=O)N[C@@H](CC(C)C)C(=O)N[C@@H](CC(C)C)C(=O)N[C@@H](C)C(=O)NCC(=O)NCC(=O)N1CCC[C@H]1C(=O)N[C@@H](CO)C(=O)N[C@@H](CO)C(=O)NCC(=O)N[C@@H](C)C(=O)N1CCC[C@H]1C(=O)N1CCC[C@H]1C(=O)N1CCC[C@H]1C(=O)N[C@@H](CO)C(N)=O)C(C)C)[C@@H](C)CC [Example 24] | 0.254 | 729 |
| CC[C@H](C)[C@H](NC(=O)[C@H](CO)NC(=O)[C@H](Cc1ccc(O)cc1)NC(=O)[C@H](CC(=O)O)NC(=O)[C@H](CO)NC(=O)[C@@H](NC(=O)[C@H](Cc1ccccc1)NC(=O)[C@@H](NC(=O)CNC(=O)[C@H](CCC(=O)O)NC(=O)[C@@H](C)NC(=O)[C@@H](N)Cc1ccc(O)cc1)[C@@H](C)O)[C@@H](C)CC)C(=O)N[C@@H](CC(C)C)C(=O)N[C@@H](CC(C)C)C(=O)N[C@@H](CC(=O)O)C(=O)N[C@@H](CCCCN)C(=O)N[C@@H](CCCCNC(=O)COCCOCCNC(=O)COCCOCCNC(=O)CC[C@H](NC(=O)CCCCCCCCCCCCCCCCCCC(=O)O)C(=O)O)C(=O)N[C@@H](C)C(=O)N[C@@H](CCC(N)=O)C(=O)N[C@@H](CCC(N)=O)C(=O)N[C@@H](CC(=O)O)C(=O)N[C@@H](Cc1ccccc1)C(=O)N[C@H](C(=O)N[C@@H](CC(N)=O)C(=O)N[C@@H](Cc1c[nH]c2ccccc12)C(=O)N[C@@H](CC(C)C)C(=O)N[C@@H](CC(C)C)C(=O)N[C@@H](C)C(=O)NCC(=O)NCC(=O)N1CCC[C@H]1C(=O)N[C@@H](CO)C(=O)N[C@@H](CO)C(=O)NCC(=O)N[C@@H](C)C(=O)N1CCC[C@H]1C(=O)N1CCC[C@H]1C(=O)N1CCC[C@H]1C(=O)N[C@@H](CO)C(N)=O)C(C)C [Example 12] (H-Y[dA]EGTFISDYSILLDKK([AEEA-AEEA-γGlu-C20 diacid])AQQDFVNWLLAGGPSSGAPPPS-NH2) | 0.0876 | 46.8 |
| CC[C@H](C)[C@H](NC(=O)[C@H](CO)NC(=O)[C@H](Cc1ccc(O)cc1)NC(=O)[C@H](CC(=O)O)NC(=O)[C@H](CO)NC(=O)[C@@H](NC(=O)[C@H](Cc1ccccc1)NC(=O)[C@@H](NC(=O)CNC(=O)[C@H](CCC(=O)O)NC(=O)C(C)(C)NC(=O)[C@@H](N)Cc1ccc(O)cc1)[C@@H](C)O)[C@@H](C)CC)C(=O)N[C@@H](C)C(=O)N[C@@H](CC(C)C)C(=O)N[C@@H](CC(=O)O)C(=O)N[C@@H](CCCCN)C(=O)N[C@@H](CCCCNC(=O)COCCOCCNC(=O)COCCOCCNC(=O)CC[C@H](NC(=O)CCCCCCCCCCCCCCCCC(=O)O)C(=O)O)C(=O)N[C@@H](Cc1c[nH]cn1)C(=O)N[C@@H](CCC(N)=O)C(=O)NC(C)(C)C(=O)N[C@@H](CC(=O)O)C(=O)N[C@@H](Cc1ccccc1)C(=O)N[C@H](C(=O)N[C@@H](CCC(=O)O)C(=O)N[C@@H](Cc1ccncc1)C(=O)N[C@@H](CC(C)C)C(=O)N[C@@H](CC(C)C)C(=O)N[C@@H](C)C(=O)NCC(=O)NCC(=O)N1CCC[C@H]1C(=O)N[C@@H](CO)C(=O)N[C@@H](CO)C(=O)NCC(=O)N[C@@H](C)C(=O)N1CCC[C@H]1C(=O)N1CCC[C@H]1C(=O)N1CCC[C@H]1C(=O)N[C@@H](CO)C(N)=O)C(C)C [Example 21] (H-Y[Aib]EGTFISDYSIALDKK([AEEA-AEEA-γGlu-C18 diacid])HQ[Aib]DFVE[4Pal]LLAGGPSSGAPPPS-NH2) | 1.46 | 801 |
